Key:
cPLA2α = molecular target: T1, cPLA2α (Homo sapiens, UniProt P47712); assay: GLU Micelle Assay; assay type: biochemical
T1 sequence (P47712 1-749): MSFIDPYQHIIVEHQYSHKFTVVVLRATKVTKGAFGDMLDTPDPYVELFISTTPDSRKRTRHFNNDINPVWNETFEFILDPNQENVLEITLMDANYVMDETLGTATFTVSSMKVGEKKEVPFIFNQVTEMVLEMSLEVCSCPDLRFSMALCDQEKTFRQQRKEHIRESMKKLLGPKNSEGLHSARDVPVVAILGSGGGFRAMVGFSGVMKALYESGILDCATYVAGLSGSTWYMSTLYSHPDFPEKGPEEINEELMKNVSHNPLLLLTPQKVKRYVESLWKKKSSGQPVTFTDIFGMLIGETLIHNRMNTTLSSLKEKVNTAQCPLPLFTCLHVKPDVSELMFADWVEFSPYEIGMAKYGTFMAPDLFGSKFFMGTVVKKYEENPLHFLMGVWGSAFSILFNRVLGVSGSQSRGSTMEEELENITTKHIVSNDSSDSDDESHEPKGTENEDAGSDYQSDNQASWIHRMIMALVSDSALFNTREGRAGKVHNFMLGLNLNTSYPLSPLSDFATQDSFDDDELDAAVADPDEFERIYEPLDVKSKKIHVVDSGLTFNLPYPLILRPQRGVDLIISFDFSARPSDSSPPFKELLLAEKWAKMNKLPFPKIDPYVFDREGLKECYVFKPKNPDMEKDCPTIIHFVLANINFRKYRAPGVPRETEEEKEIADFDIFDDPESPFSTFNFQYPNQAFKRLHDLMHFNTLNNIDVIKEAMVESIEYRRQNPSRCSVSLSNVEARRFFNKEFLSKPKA
Procedure: The assay was carried in a 96-well format using a fluorescent plate reader with a 355 nm excitation filter and a 460 nm emission filter (Lab Systems Fluoroscan II, Helsinki, Finland). The assay buffer contained 940 μM Triton X-100, 50 mM Hepes pH 7.4, 0.3 mM EDTA, 1 mM CaCl2 and 300 mM KCl. DTPC (1,2-O-tetradecyl-sn-glycero-3-phosphocholine, Avanti) at a final concentration of 120 μM was added the day of the experiment and GLU (7-Hydroxycoumarinyl-γ-linolenate, Biomol Research Lab, Inc.) at a final concentration of 90 μM was added immediately prior to each assay.
Compounds (10 μL) dissolved in DMSO were placed in duplicate wells of a black 96-well plate. Wells corresponding to the positive and negative controls contained DMSO without inhibitors. Just prior to the experiment, 200 μL assay buffer containing 90 μM GLU and 120 μM DTPC was added to all wells in the assay plate. Assay buffer (50 μL) was added to the negative, and 50 μL cPLA2α solution ([…] in assay buffer) was added to all other wells to initiate the reaction. The final concentration of enzyme was 1 μg/ml. The content of each well was mixed gently during the addition of the enzyme, and the plate was rapidly transferred to the fluorescent plate reader. The increase in fluorescence was read every 4 min for 84 min. The slope of the resulting line was determined and the inhibition was calculated using the equation below: Percent Inhibition=[1−(slope with inhibitor−slope negative control)/(slope positive control−slope negative control)]×100 Rat Whole Blood Assay

TXB2 = assay: Rat Whole Blood Assay (A23187-stimulated TXB2); assay type: cell-based; settings: A23187 5 μM
Procedure: Fresh blood was collected in heparinized tubes by cardiac puncture of male Sprague-Dawley rats. Aliquots of blood (0.6 mL) were incubated with either 6 μL solvent (DMSO), or 6 μL of test compounds at various concentrations for 15 minutes at 37° C. This was followed by incubation of the blood with 6 μL of calcium ionophore, A23187 (Sigma C-7522) diluted in DMSO for 10 min at 37° C. The final concentration of A23187 was 5 μM. DMSO (6 μL) was added in the unstimulated controls. The reactions were stopped by mixing 60 μL cold EDTA to give a final concentration of 20 mM. The blood was centrifuged at 6,500 rpm for 10 min on a microcentrifuge to obtain plasma. A 70 μL aliquot of plasma was mixed with 400 μL cold methanol for protein precipitation. After incubation at −80° C. for 30 min, the supernatant was obtained by centrifuging at 6,500 rpm for 10 min, and was assayed for TXB2 according to the manufacturer's procedure (Assay Designs, Inc.'s ELISA kit #900-002).

[1] = test system: primary cerebellar granule neurons; assay: Oxygen-glucose deprivation (OGD) in cultured cerebellar granule neurons; assay type: cell-based, rat; settings: for percent cell death (lactate dehydrogenase release), Avg.: OGD 2 hours, control 14, OGD 51
Procedure: Primary cerebellar granule neurons were isolated from P5-8 rat pups. Briefly, cerebelli were collected and pooled in ice-cold phosphate buffer saline (PBS) without Ca^2+ and Mg^2+. The tissue was finely chopped and transferred to an enzymatic dissociation media containing 20 IU/ml papain in Earle's balanced salt solution (Worthington Biochemical, Freehold, N.J.) and incubated for 30 minutes at 37° C. After enzymatic dissociation, the papain solution was aspirated and the tissue mechanically triturated with a fire-polished Pasteur pipette in complete media [Neurobasal Medium with B-27 supplement (Gibco, Grand Island, N.Y.), penicillin/streptomycin, aphidicolin, glutamate, potassium chloride] containing 2,000 IU/ml DNase and 10 mg/ml ovomucoid protease inhibitor. Single-cell suspensions in complete media were plated on pre-coated poly-L-ornithine/laminin 24-well plates (Becton-Dickinson, Bedford, Mass.) at a density of
5.0×10^5 cells/well. Cells were maintained for two weeks prior to experimentation.
Cultures were treated with Compound A at various concentrations, 60 minutes before OGD. Media was removed and replaced with deoxygenated buffer in an anaerobic chamber (80% nitrogen, 10% hydrogen, 10% carbon dioxide gas mixture). Fresh Compound A, Example 34 or Example 41 was added to the cultures and maintained in the anaerobic chamber for 2 hours. At the end of the incubation, fresh media was exchanged and fresh Compound A was added. Cultures were maintained for an additional 24 hours in a normoxic incubator. Cell death was determined by measuring lactate dehydrogenase release into the media 24 hours later (Roche Biochemicals). In the table below, values are shown for the control, OGD, various concentrations of Compound A, and MK801, a NMDA receptor antagonist, which is a positive control.

Row | IC50 (cPLA2α) [nM] | IC50 (TXB2; Rattus norvegicus) [nM] | Structure (SMILES) | other results
1 | 16 | 40 | O=C(O)c1ccc(CCCc2c(CCNS(=O)(=O)Cc3ccccc3-c3cccnc3)n(C(c3ccccc3)c3ccccc3)c3ccc(Cl)cc23)cc1 [Example 31, 4-{3-[5-chloro-1-(diphenylmethyl)-2-(2-{[(2-pyridin-3-ylbenzyl)sulfonyl]amino}ethyl)-1H-indol-3-yl]propyl}benzoic acid] | 
2 | 10 | 20 | O=C(O)c1ccc(CCCc2c(CCNS(=O)(=O)Cc3ccccc3CN3CCOCC3)n(C(c3ccccc3)c3ccccc3)c3ccc(Cl)cc23)cc1 [Example 17, 4-(3-{5-chloro-1-(diphenylmethyl)-2-[2-({[2-(morpholin-4-ylmethyl)benzyl]sulfonyl}amino)ethyl]-1H-indol-3-yl}propyl)benzoic acid] | 
3 | 22 | 30 | O=C(O)c1ccc(CCCc2c(CCNS(=O)(=O)Cc3ccccc3CO)n(C(c3ccccc3)c3ccccc3)c3ccc(Cl)cc23)cc1 [Example 19, 4-(3-{5-chloro-1-(diphenylmethyl)-2-[2-({[2-(hydroxymethyl)benzyl]sulfonyl}amino)ethyl]-1H-indol-3-yl}propyl)benzoic acid] | 
4 | 22 | 20 | Cc1noc(C)c1-c1ccccc1CS(=O)(=O)NCCc1c(CCCc2ccc(C(=O)O)cc2)c2cc(Cl)ccc2n1C(c1ccccc1)c1ccccc1 [Example 33, 4-{3-[5-chloro-2-[2-({[2-(3,5-dimethylisoxazol-4-yl)benzyl]sulfonyl}amino)ethyl]-1-(diphenylmethyl)-1H-indol-3-yl]propyl}benzoic acid] | 
5 | 25 | 40 | CCN(CC)Cc1ccccc1CS(=O)(=O)NCCc1c(CCCc2ccc(C(=O)O)cc2)c2cc(Cl)ccc2n1C(c1ccccc1)c1ccccc1 [Example 18, 4-{3-[5-chloro-2-{2-[({2-[(diethylamino)methyl]benzyl}sulfonyl)amino]ethyl}-1-(diphenylmethyl)-1H-indol-3-yl]propyl}benzoic acid] | 
6 | 7 | 10 | O=C(O)CCc1ccc(S(=O)(=O)CCc2c(CCNS(=O)(=O)Cc3ccccc3C(F)(F)F)n(C(c3ccccc3)c3ccccc3)c3ccc(Cl)cc23)cc1 [Example 38, 3-{4-[(2-{5-chloro-1-(diphenylmethyl)-2-[2-({[2-(trifluoromethyl)benzyl]sulfonyl}amino)ethyl]-1H-indol-3-yl}ethyl)sulfonyl]phenyl}propanoic acid] | 
7 | 190 | 120 | O=C(O)c1ccc(OCCc2c(CCNS(=O)(=O)Cc3ccccc3O)n(C(c3ccccc3)c3ccccc3)c3ccc(Cl)cc23)cc1 [Example 2, 4-{2-[5-chloro-1-(diphenylmethyl)-2-(2-{[(2-hydroxybenzyl)sulfonyl]amino}ethyl)-1H-indol-3-yl]ethoxy}benzoic acid] | 
8 | 23 | 50 | O=Cc1ccccc1CS(=O)(=O)NCCc1c(CCCc2ccc(C(=O)O)cc2)c2cc(Cl)ccc2n1C(c1ccccc1)c1ccccc1 [Example 16, 4-{3-[5-chloro-1-(diphenylmethyl)-2-(2-{[(2-formylbenzyl)sulfonyl]amino}ethyl)-1H-indol-3-yl]propyl}benzoic acid] | 
9 | 25 | 30 | N#Cc1ccccc1-c1ccccc1CS(=O)(=O)NCCc1c(CCCc2ccc(C(=O)O)cc2)c2cc(Cl)ccc2n1C(c1ccccc1)c1ccccc1 [Example 37, 4-{3-[5-chloro-2-[2-({[(2′-cyanobiphenyl-2-yl)methyl]sulfonyl}amino)ethyl]-1-(diphenylmethyl)-1H-indol-3-yl]propyl}benzoic acid] | 
10 | 26 | 30 | COC(=O)c1ccccc1CS(=O)(=O)NCCc1c(CCCc2ccc(C(=O)O)cc2)c2cc(Cl)ccc2n1C(c1ccccc1)c1ccccc1 [Example 13, 4-(3-{5-chloro-1-(diphenylmethyl)-2-[2-({[2-(methoxycarbonyl)benzyl]sulfonyl}amino)ethyl]-1H-indol-3-yl}propyl)benzoic acid] | 
11 | 13 | 50 | O=C(O)c1ccc(CCCc2c(CCNS(=O)(=O)Cc3ccccc3-c3ccsc3)n(C(c3ccccc3)c3ccccc3)c3ccc(Cl)cc23)cc1 [Example 32, 4-(3-{5-chloro-1-(diphenylmethyl)-2-[2-({[2-(3-thienyl)benzyl]sulfonyl}amino)ethyl]-1H-indol-3-yl}propyl)benzoic acid] | 
12 | 21 | 40 | O=C(O)c1ccc(CCCc2c(CCNS(=O)(=O)Cc3c(C(F)(F)F)cccc3C(F)(F)F)n(C(c3ccccc3)c3ccccc3)c3ccc(Cl)cc23)cc1 [Example 12, 4-{3-[2-[2-({[2,6-bis(trifluoromethyl)benzyl]sulfonyl}amino)ethyl]-5-chloro-1-(diphenylmethyl)-1H-indol-3-yl]propyl}benzoic acid] | 
13 | 92 | 80 | O=C(O)c1ccc(OCCc2c(CCNS(=O)(=O)Cc3c(F)cccc3C(F)(F)F)n(C(c3ccccc3)c3ccccc3)c3ccc(Cl)cc23)cc1 [Example 6, 4-(2-{5-chloro-1-(diphenylmethyl)-2-[2-({[2-fluoro-6-(trifluoromethyl)benzyl]sulfonyl}amino)ethyl]-1H-indol-3-yl}ethoxy)benzoic acid] | 
14 | 22 |  | O=C(O)c1ccc(CCCc2c(CCNS(=O)(=O)Cc3ccccc3-c3cccc4ncccc34)n(C(c3ccccc3)c3ccccc3)c3ccc(Cl)cc23)cc1 [Example 41, 4-{3-[5-chloro-1-(diphenylmethyl)-2-(2-{[(2-quinolin-5-ylbenzyl)sulfonyl]amino}ethyl)-1H-indol-3-yl]propyl}benzoic acid] | protection of cultured neurons from OGD-induced cell death [1]: effective in protecting cultured neurons from OGD-induced cell death; percent cell death (lactate dehydrogenase release), Avg. ([1]; 0.1 μM): 40%; percent cell death (lactate dehydrogenase release), Avg. ([1]; 0.3 μM): 33%; percent cell death (lactate dehydrogenase release), Avg. ([1]; 1 μM): 30%; percent cell death (lactate dehydrogenase release), Avg. ([1]; 3 μM): 24%

Row | Structure (SMILES) | IC50 (cPLA2α) [nM] | IC50 (TXB2; Rattus norvegicus) [nM] | other results
15 | Cc1c(Cl)ccc(F)c1CS(=O)(=O)NCCc1c(CCCc2ccc(C(=O)O)cc2)c2cc(Cl)ccc2n1C(c1ccccc1)c1ccccc1 [Example 26] | 22 |  | IC50 (TXB2): 30 nM

From patent publication US8283373B2, “Inhibitors of cytosolic phospholipase A2” (Pfizer Inc., priority 2005, dated 2012)
